“And” between values parts separate entries of the source, which are not always exact repeats. Equal values may be shown once.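 Dose response: 5 concentrations. Exposure: 48 h. Format: 96-well plates. Endpoint: linear interpolation; highest concentration if not reached. GI50 is the concentration that inhibits growth by half. Definition used: TGI = concentration required for complete inhibition of growth.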
Legend:
Assay in all cases: NCI tumour cell line growth inhibition, 48 h
MCF7 breast = tested on: MCF7 breast
DU-145 prostate = tested on: DU-145 prostate
MALME-3M melanoma = tested on: MALME-3M melanoma
LXFL 529 NSCLC = tested on: LXFL 529 NSCLC
SNB-19 CNS = tested on: SNB-19 CNS
M14 melanoma = tested on: M14 melanoma
HCC-2998 colon = tested on: HCC-2998 colon
IGROV1 ovarian = tested on: IGROV1 ovarian
CCRF-CEM leukemia = tested on: CCRF-CEM leukemia
OVCAR-5 ovarian = tested on: OVCAR-5 ovarian
SK-MEL-28 melanoma = tested on: SK-MEL-28 melanoma
KM20L2 colon = tested on: KM20L2 colon
UO-31 renal = tested on: UO-31 renal
ACHN renal = tested on: ACHN renal
HOP-62 NSCLC = tested on: HOP-62 NSCLC
HCT-15 colon = tested on: HCT-15 colon
SF-268 CNS = tested on: SF-268 CNS
SW-620 colon = tested on: SW-620 colon
COLO 205 colon = tested on: COLO 205 colon
SNB-78 CNS = tested on: SNB-78 CNS
HOP-18 NSCLC = tested on: HOP-18 NSCLC
DMS 114 small cell lung = tested on: DMS 114 small cell lung
RXF 393 renal = tested on: RXF 393 renal
U251 CNS = tested on: U251 CNS
RPMI-8226 leukemia = tested on: RPMI-8226 leukemia
HOP-92 NSCLC = tested on: HOP-92 NSCLC
SK-OV-3 ovarian = tested on: SK-OV-3 ovarian
SN12C renal = tested on: SN12C renal
TK-10 renal = tested on: TK-10 renal
EKVX NSCLC = tested on: EKVX NSCLC
UACC-62 melanoma = tested on: UACC-62 melanoma
LOX IMVI melanoma = tested on: LOX IMVI melanoma
SR leukemia = tested on: SR leukemia
SK-MEL-2 melanoma = tested on: SK-MEL-2 melanoma
786-0 renal = tested on: 786-0 renal
NCI-H522 lung = tested on: NCI-H522 lung
SNB-75 CNS = tested on: SNB-75 CNS
DLD-1 colon = tested on: DLD-1 colon
NCI-H23 lung = tested on: NCI-H23 lung
P388 leukemia = tested on: P388 leukemia
MOLT-4 leukemia = tested on: MOLT-4 leukemia
DMS 273 small cell lung = tested on: DMS 273 small cell lung
T-47D breast = tested on: T-47D breast
MDA-N = tested on: MDA-N
SN12K1 renal = tested on: SN12K1 renal
HT29 colon = tested on: HT29 colon
KM12 colon = tested on: KM12 colon
SK-MEL-5 melanoma = tested on: SK-MEL-5 melanoma
OVCAR-8 ovarian = tested on: OVCAR-8 ovarian
K-562 leukemia = tested on: K-562 leukemia
MDA-MB-435 = tested on: MDA-MB-435
OVCAR-3 ovarian = tested on: OVCAR-3 ovarian
P388/ADR leukemia = tested on: P388/ADR leukemia

`CCOC(=O)C(CC(C)C)NC(=O)C(Cc1ccc(N(CCCl)CCCl)cc1)NC(C)=O` (stereo not drawn) gave a TGI (MCF7 breast) of 25.9 µM, a TGI (DU-145 prostate) of 21.9 µM and a GI50 (MALME-3M melanoma) of 4.01 µM. The TGI (MALME-3M melanoma) was 22.8 µM and 7.77 µM, the TGI (LXFL 529 NSCLC) was 26.5 µM and the GI50 (SNB-19 CNS) was 19.7 µM. The TGI (SNB-19 CNS) was 81.8 µM and 42.7 µM, the GI50 (M14 melanoma) was 4.13 µM and the TGI (M14 melanoma) was 15.8 µM and 8.08 µM. For the same molecule, the GI50 (HCC-2998 colon) was 17.2 µM, the TGI (HCC-2998 colon) was 31.5 µM and 30.6 µM and the TGI (IGROV1 ovarian) was 33.2 µM and 29.3 µM. The GI50 (CCRF-CEM leukemia) was 2.52 µM, the TGI (OVCAR-5 ovarian) was 32 µM and 33.5 µM and the GI50 (SK-MEL-28 melanoma) was 14.6 µM. The TGI (SK-MEL-28 melanoma) was 31.2 µM and 19.3 µM, the GI50 (KM20L2 colon) was 13.8 µM and the TGI (KM20L2 colon) was 29.7 µM and 46.9 µM. For the same molecule, the GI50 (UO-31 renal) was 13.2 µM, the TGI (UO-31 renal) was 73 µM and 20.4 µM and the GI50 (ACHN renal) was 3.7 µM. The TGI (ACHN renal) was 16 µM and 9.63 µM, the GI50 (HOP-62 NSCLC) was 6.09 µM and the TGI (HOP-62 NSCLC) was 23.1 µM and 14.2 µM. The TGI (HCT-15 colon) was 43.1 µM, the TGI (SF-268 CNS) was 22.6 µM and 20.5 µM and the GI50 (SW-620 colon) was 11.3 µM. For the same molecule, the TGI (SW-620 colon) was 28.7 µM and 33.4 µM, the GI50 (COLO 205 colon) was 7.01 µM and the TGI (COLO 205 colon) was 19.8 µM and 13 µM. For the same molecule, the TGI (SNB-78 CNS) was 16.6 µM and 17.8 µM, the TGI (HOP-18 NSCLC) was 33.7 µM and the GI50 (DMS 114 small cell lung) was 1.37 µM. The TGI (DMS 114 small cell lung) was 12.2 µM and 7.05 µM, the GI50 (RXF 393 renal) was 2.57 µM and the TGI (RXF 393 renal) was 6.75 µM and 4.46 µM. For the same molecule, the GI50 (U251 CNS) was 10.2 µM, the TGI (U251 CNS) was 26.2 µM and 27 µM and the GI50 (RPMI-8226 leukemia) was 3.19 µM. For the same molecule, the TGI (RPMI-8226 leukemia) was 14.8 µM and 15 µM, the GI50 (HOP-92 NSCLC) was 1.25 µM and the TGI (HOP-92 NSCLC) was 3.75 µM and 1.4 µM. The GI50 (SK-OV-3 ovarian) was 21.7 µM, the TGI (SK-OV-3 ovarian) was 58.6 µM and 35.5 µM and the GI50 (SN12C renal) was 4.59 µM. For the same molecule, the TGI (SN12C renal) was 17.2 µM and 14.6 µM, the TGI (TK-10 renal) was 30.2 µM and 32.2 µM and the GI50 (EKVX NSCLC) was 19.7 µM. The TGI (EKVX NSCLC) was 35.7 µM and 27.7 µM, the GI50 (UACC-62 melanoma) was 2.86 µM and the TGI (UACC-62 melanoma) was 12.7 µM and 7.29 µM. For the same molecule, the GI50 (LOX IMVI melanoma) was 3.34 µM, the TGI (LOX IMVI melanoma) was 15.1 µM and 12.5 µM and the GI50 (SR leukemia) was 1.04 µM and 0.895 µM. The TGI (SR leukemia) was 10.8 µM and 7 µM, the GI50 (SK-MEL-2 melanoma) was 1.81 µM and the TGI (SK-MEL-2 melanoma) was 4.74 µM and 5.49 µM. For the same molecule, the GI50 (786-0 renal) was 4.11 µM, the TGI (786-0 renal) was 16.6 µM and 8.47 µM and the GI50 (NCI-H522 lung) was 2.52 µM. The TGI (NCI-H522 lung) was 8.68 µM and 3.87 µM, the GI50 (SNB-75 CNS) was 8.51 µM and the TGI (SNB-75 CNS) was 21.7 µM and 24.9 µM. For the same molecule, the GI50 (DLD-1 colon) was 5.4 µM and 8.64 µM, the TGI (DLD-1 colon) was 21.1 µM and 31.3 µM and the GI50 (NCI-H23 lung) was 5.17 µM. For the same molecule, the TGI (NCI-H23 lung) was 16.7 µM and 16.5 µM, the TGI (P388 leukemia) was 10.6 µM and the GI50 (MOLT-4 leukemia) was 2.04 µM and 0.307 µM. The TGI (MOLT-4 leukemia) was 15.5 µM and 3.31 µM, the TGI (DMS 273 small cell lung) was 20.1 µM and 24.9 µM and the TGI (T-47D breast) was 11.2 µM. For the same molecule, the TGI (MDA-N) was 6.91 µM, the TGI (SN12K1 renal) was 10.4 µM and the GI50 (HT29 colon) was 14.9 µM. The TGI (HT29 colon) was 36.7 µM and 31.8 µM, the GI50 (KM12 colon) was 17.8 µM and the TGI (KM12 colon) was 37.5 µM and 44.7 µM. The GI50 (SK-MEL-5 melanoma) was 10.6 µM, the TGI (SK-MEL-5 melanoma) was 23.5 µM and 10.7 µM and the GI50 (OVCAR-8 ovarian) was 12.1 µM. For the same molecule, the TGI (OVCAR-8 ovarian) was 30.8 µM and 55.2 µM, the GI50 (K-562 leukemia) was 11.6 µM and the TGI (K-562 leukemia) was 49.7 µM and 54.6 µM. The TGI (MDA-MB-435) was 11.5 µM, the GI50 (OVCAR-3 ovarian) was 15.1 µM and the TGI (OVCAR-3 ovarian) was 29.2 µM and 13.7 µM. It also gave a TGI (P388/ADR leukemia) of 10.5 µM.
